We go through 22 molecules from patent US10392404B2, “Compounds and compositions as kinase inhibitors” (NOVARTIS AG, priority 2014, dated 2019).

One assay concerns the target T1, C-RAF (Homo sapiens, UniProt P04049, Y340E/Y341E).
T1 construct: His tag (implied by nickel chromatography) (cleaved yes); StrepII tag (cleaved yes); made in house; host or cells: Sf9 insect cells (baculovirus), CRAF and h14-3-3 zeta co-expressed; MEK1 substrate from E. coli
The experiment in a line: In vitro Raf activity determination (Alpha Screen, biotinylated kinase-dead MEK1 substrate), C-Raf. The class given is biochemical. The settings on record: c-Raf approximately 4 nM; ATP 1 μM; pre-incubation 60 minutes; reaction 1 hour at room temperature. The text has this: CRAF cDNA was subcloned as full length protein, with Y340E and Y341E activating mutations, into a baculovirus expression vector for Sf9 insect cell expression. h14-3-3 zeta cDNA was subcloned into a baculovirus expression vector for SF9 insect cell expression. Sf9 cells co-expressing both proteins were lysed and subjected to immobilized nickel chromatography and eluted with Imidazole. A second column (StrepII binding column) was used and eluted with desthiobiotin. Protein Tags were removed using Prescission enzyme and the protein was further purified using a flowthrough step to remove tags.
C-Raf TR refers to a truncated C-Raf protein, a Δ1-324 deletion mutant. C-Raf FL refers to the full-length C-Raf protein.
(§1) Full length MEK1 with an inactivating K97R ATP binding site mutation is utilized as a RAF substrate. The MEK1 cDNA was subcloned with an N-terminal (his)6 tag into a vector for E. Coli expression. The MEK1 substrate was purified from E. Coli lysate by nickel affinity chromatography followed by anion exchange. The final MEK1 preparation was biotinylated (Pierce EZ-Link Sulfo-NHS-LC-Biotin) and concentrated.
(§2) Assay Materials: Assay buffer is 50 mM Tris, pH 7.5, 15 mM MgCl2, 0.01% Bovine Serum Albumin (BSA) and 1 mM dithiothreitol (DTT); Stop buffer is 60 mM ethylenediaminetetraacetic acid (EDTA) and 0.01% Tween® 20; b-Raf (V600E), active; biotinylated Mek, kinase dead; Alpha Screen detection kit (available from PerkinElmer™, #6760617R); Anti phospho-MEK1/2 (available from Cell Signaling Technology, Inc. #9121); 384 well low volume assay plates (White Greiner® plates).
(§3) Assay conditions: b-Raf (V600E) approximately 4 pM; c-Raf approximately 4 nM; biotinylated Mek, kinase dead approximately 10 nM; ATP 10 μM for BRAF (V600E) and 1 μM for CRAF; Pre-incubation time with compounds 60 minutes at room temperature; Reaction time 1 or 3 hours at room temperature.
(§4) Assay protocol: Raf and biotinylated Mek (kinase dead) were combined at 2× final concentrations in assay buffer (50 mM Tris, pH 7.5, 15 mM MgCl2, 0.01% BSA and 1 mM DTT) and dispensed […] per well in assay plates (Greiner white 384 well assay plates #781207) containing […] of 40× of a Raf kinase inhibitor test compound diluted in 100% DMSO. The plate was incubated for 60 minutes at room temperature. The Raf kinase activity reaction was started by the addition of […] per well of 2×ATP diluted in assay buffer. After 3 hours (b-Raf(V600E)) or 1 hour (c-Raf). The reactions were stopped and the phosphorylated product was measured using a rabbit anti-p-MEK (Cell Signaling, #9121) antibody and the Alpha Screen IgG (ProteinA) detection Kit (PerkinElmer #6760617R), by the addition of […] to the well of a mixture of the antibody (1:2000 dilution) and detection beads (1:2000 dilution of both beads) in Stop/bead buffer (25 mM EDTA, 50 mM Tris, pH 7.5, 0.01% Tween20). The additions were carried out under dark conditions to protect the detection beads from light. A lid was placed on top of the plate and incubated for 1 hour at room temperature, after which the luminescence was read on a PerkinElmer Envision instrument. The concentration of each compound for 50% inhibition (IC50) was calculated by non-linear regression using XL Fit data analysis software.

The next assay concerns the target T2, b-Raf (V600E) (Homo sapiens, UniProt P15056, V600E).
T2 construct: made in house
The experiment in a line: In vitro Raf activity determination (Alpha Screen, biotinylated kinase-dead MEK1 substrate), B-Raf. The format is biochemical. The conditions noted are these: b-Raf (V600E) approximately 4 pM; ATP 10 μM; pre-incubation 60 minutes; reaction 3 hours at room temperature. On the procedure:
as §1, §2, §3, §4

T2 sequence (P15056 whole entry V600E): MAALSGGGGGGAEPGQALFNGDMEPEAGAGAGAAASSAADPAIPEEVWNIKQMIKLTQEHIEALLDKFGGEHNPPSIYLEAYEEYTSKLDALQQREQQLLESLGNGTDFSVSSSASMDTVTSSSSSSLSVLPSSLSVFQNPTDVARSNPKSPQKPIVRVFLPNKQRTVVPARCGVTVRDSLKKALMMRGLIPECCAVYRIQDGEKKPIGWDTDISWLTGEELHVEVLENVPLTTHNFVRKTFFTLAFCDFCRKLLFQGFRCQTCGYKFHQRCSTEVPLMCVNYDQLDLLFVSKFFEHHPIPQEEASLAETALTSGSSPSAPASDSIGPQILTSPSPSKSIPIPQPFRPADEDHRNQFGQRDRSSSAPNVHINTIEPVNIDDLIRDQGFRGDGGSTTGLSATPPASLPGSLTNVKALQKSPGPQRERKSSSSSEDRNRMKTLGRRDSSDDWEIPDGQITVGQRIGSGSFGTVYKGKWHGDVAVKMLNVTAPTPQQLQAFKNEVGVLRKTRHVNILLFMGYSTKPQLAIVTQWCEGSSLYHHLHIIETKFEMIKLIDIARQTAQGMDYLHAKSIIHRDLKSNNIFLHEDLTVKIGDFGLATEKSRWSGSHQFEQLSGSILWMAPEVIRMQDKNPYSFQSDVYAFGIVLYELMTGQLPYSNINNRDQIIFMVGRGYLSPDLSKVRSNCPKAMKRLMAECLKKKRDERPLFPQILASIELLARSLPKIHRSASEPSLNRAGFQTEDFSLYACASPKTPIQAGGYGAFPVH
T1 sequence (P04049 whole entry Y340E/Y341E): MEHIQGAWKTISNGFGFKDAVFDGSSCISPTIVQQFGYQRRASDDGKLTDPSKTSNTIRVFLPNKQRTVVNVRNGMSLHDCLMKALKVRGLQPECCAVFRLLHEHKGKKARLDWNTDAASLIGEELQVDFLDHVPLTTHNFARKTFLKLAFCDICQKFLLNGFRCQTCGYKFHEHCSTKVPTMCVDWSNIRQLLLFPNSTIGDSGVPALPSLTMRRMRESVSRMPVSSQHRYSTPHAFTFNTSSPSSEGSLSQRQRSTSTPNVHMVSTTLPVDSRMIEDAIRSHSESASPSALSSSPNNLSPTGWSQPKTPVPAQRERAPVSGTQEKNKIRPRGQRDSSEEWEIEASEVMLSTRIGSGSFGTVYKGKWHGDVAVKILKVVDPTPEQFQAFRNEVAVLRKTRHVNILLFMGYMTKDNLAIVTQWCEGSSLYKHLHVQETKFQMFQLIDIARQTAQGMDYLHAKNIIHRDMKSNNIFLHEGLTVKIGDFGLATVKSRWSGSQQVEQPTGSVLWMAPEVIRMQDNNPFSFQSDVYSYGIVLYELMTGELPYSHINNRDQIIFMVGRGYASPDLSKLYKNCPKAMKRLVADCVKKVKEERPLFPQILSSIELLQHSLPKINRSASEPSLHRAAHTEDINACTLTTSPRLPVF
T1 sequence (P63104 whole entry partner): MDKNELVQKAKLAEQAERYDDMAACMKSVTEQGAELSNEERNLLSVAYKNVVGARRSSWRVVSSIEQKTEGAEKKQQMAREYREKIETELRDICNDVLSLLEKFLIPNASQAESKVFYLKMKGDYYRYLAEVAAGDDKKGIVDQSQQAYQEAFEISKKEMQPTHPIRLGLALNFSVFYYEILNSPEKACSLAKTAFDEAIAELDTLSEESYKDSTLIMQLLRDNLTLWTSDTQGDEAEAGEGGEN

The term IC50 denotes the point on the concentration scale where inhibition reaches its midpoint. A lower IC50 goes with higher potency. For the molecule `Cc1ncc(NC(=O)c2ccnc(C(C)(C)C#N)c2)cc1-c1cnc(N2CCOC[C@@H]2C)c(C#N)c1` [Example 87, (S)-N-(5′-cyano-2-methyl-6′-(3-methylmorpholino)-[3,3′-bipyridin]-5-yl)-2-(2-cyanopropan-2-yl)isonicotinamide], the IC50 is 1.15 nM on C-RAF and 3.02 nM at b-Raf (V600E).

For the molecule `Cc1ncc(NC(=O)c2cc(C(C)(C)N)cc(C(F)(F)F)c2)cc1-c1cnc(N2CCOCC2)c(C#N)c1` [Example 246, 3-(2-aminopropan-2-yl)-N-(5′-cyano-2-methyl-6′-morpholino-[3,3′-bipyridin]-5-yl)-5-(trifluoromethyl) benzamide], the IC50 amounted to 1.85 nM against C-RAF and 7.67 nM on b-Raf (V600E).

In the case of `Cc1ccc(NC(=O)c2cccc(C(F)F)c2)cc1-c1cnc(N2CCNCC2)c(C#N)c1` [Example 163, N-(3-(5-cyano-6-(piperazin-1-yl)pyridin-3-yl)-4-methylphenyl)-3-(difluoromethyl) benzamide], the IC50 against C-RAF stood at 0.125 nM; against b-Raf (V600E), 0.901 nM.

On to `Cc1ccc(NC(=O)c2ccnc(C(C)(C)C#N)c2)cc1-c1cc(C#N)cnc1N` [Example 12, N-(3-(2-amino-5-cyanopyridin-3-yl)-4-methylphenyl)-2-(2-cyanopropan-2-yl)isonicotinamide], for which the IC50 was 1.81 nM at C-RAF and 27.8 nM against b-Raf (V600E).

Take `Cc1ncc(NC(=O)c2cnnc(C3CC3)c2)cc1-c1cnc(NC2CCOCC2)c(C#N)c1` [Example 200, N-(5′-cyano-2-methyl-6′-((tetrahydro-2H-pyran-4-yl)amino)-[3,3′-bipyridin]-5-yl)-6-cyclopropylpyridazine-4-carboxamide]: the results for the IC50 on C-RAF and against b-Raf (V600E) were 2.38 nM and 15.2 nM, respectively.

For `Cc1ncc(NC(=O)c2cc(C(C)C)on2)cc1-c1cnc(N(C)C)c(C#N)c1` [Example 269, N-(5′-cyano-6′-(dimethylamino)-2 methyl-[3,3′-bipyridin]-5-yl)-5-isopropylisoxazole-3-carboxamide], the IC50 on C-RAF came to 0.636 nM; at b-Raf (V600E), 6.15 nM.

Consider `Cc1ccc(NC(=O)c2cccc(C(F)(F)F)c2)cc1-c1cnc(N(C)C)c(C#N)c1` [Example 15, N-(3-(5-cyano-6-(dimethylamino)pyridin-3-yl)-4-methylphenyl)-3-(trifluoromethyl) benzamide], for which the IC50 against C-RAF came out at 0.0734 nM; on b-Raf (V600E) it was 0.566 nM.

As to `Cc1ncc(NC(=O)c2ccnc(C(C)(C)C#N)c2)cc1-c1cnc(N2CCOC(C)(C)C2)c(C#N)c1` [Example 89, N-(5′-cyano-6′-(2,2-dimethylmorpholino)-2-methyl-[3,3′-bipyridin]-5-yl)-2-(2-cyanopropan-2-yl)isonicotinamide], the results for the IC50 at C-RAF and on b-Raf (V600E) were 1.02 nM and 3.42 nM, respectively.

As for `Cc1ccc(NC(=O)c2ccnc(C(F)(F)F)c2)cc1-c1cnc(N2CCOCC2)c(C#N)c1` [Example 62, N-(3-(5-cyano-6-morpholinopyridin-3-yl)-4-methylphenyl)-2-(trifluoromethyl) isonicotinamide], the IC50 against C-RAF was 0.158 nM; against b-Raf (V600E) it was 0.477 nM.

In the case of `Cc1ccc(NC(=O)c2cccc(C(F)(F)F)c2)cc1-c1cnc(Cl)c(C#N)c1` [Example 33, N-(3-(6-chloro-5-cyanopyridin-3-yl)-4-methylphenyl)-3-(trifluoromethyl)benzamide], the values for the IC50 on C-RAF and at b-Raf (V600E) were 0.432 nM and 3.4 nM, respectively.

`Cc1ncc(NC(=O)c2ccnc(C(F)(F)F)c2)cc1-c1cnc(OC2COC2)c(C#N)c1` [Example 95, N-(5′-cyano-2-methyl-6′-(oxetan-3-yloxy)-[3,3′-bipyridin]-5-yl)-2-(trifluoromethyl) isonicotinamide]: the IC50 at C-RAF worked out at 2.34 nM; at b-Raf (V600E), 12.8 nM.

With `Cc1ccc(NC(=O)c2ccnc(C(C)(C)C#N)c2)cc1-c1cnc(C(C)C)c(C#N)c1` [Example 122, N-(3-(5-cyano-6-isopropylpyridin-3-yl)-4-methylphenyl)-2-(2-cyanopropan-2-yl)isonicotinamide], the IC50 against C-RAF was determined as 0.994 nM; against b-Raf (V600E), 2.8 nM.

Consider `Cc1ccc(NC(=O)c2ccnc(C(C)(C)O)c2)cc1-c1cnc(N(C)C)c(C#N)c1` [Example 256, N-(3-(5-cyano-6-(dimethylamino)pyrdin-3-yl)-4-methylphenyl)-2-(2-hydroxypropan-2-yl)isonicotinamide], for which the IC50 at C-RAF is 0.353 nM; against b-Raf (V600E), 1.52 nM.

Take `Cc1ccc(NC(=O)c2ccnc(C(F)F)c2)cc1-c1cnc(-c2cnn(C)c2)c(C#N)c1` [Example 126, N-(3-(5-cyano-6-(1-methyl-1H-pyrazol-4-yl)pyridin-3-yl)-4-methylphenyl)-2-(difluoromethyl) isonicotinamide]: the IC50 against C-RAF is 0.0423 nM; on b-Raf (V600E) it was 0.304 nM.

For `COCCNc1ncc(-c2cc(NC(=O)c3cnnc(C(C)(C)C#N)c3)cnc2C)cc1C#N` [Example 202, N-(5′-cyano-6′-((2-methoxyethyl)amino)-2-methyl-[3,3′-bipyridin]-5-yl)-6-(2-cyanopropan-2-yl)pyridazine-4-carboxamide], the IC50 was 4.82 nM against C-RAF and 32.6 nM against b-Raf (V600E).

Take `Cc1ccc(NC(=O)c2ccnc(C(C)(C)C#N)c2)cc1-c1cnc(N2CC(C)(O)C2)c(C#N)c1` [Example 29, N-(3-(5-cyano-6-(3-hydroxy-3-methylazetidin-1-yl)pyridin-3-yl)-4-methylphenyl)-2-(2-cyanopropan-2-yl)isonicotinamide]: the IC50 at C-RAF is 0.671 nM; against b-Raf (V600E), 4.05 nM.

As for `Cc1ccc(NC(=O)c2cnnc(C(F)(F)F)c2)cc1-c1cnc(N2CC(C)(O)C2)c(C#N)c1` [Example 213], the IC50 against C-RAF is 1.78 nM; at b-Raf (V600E), 8.79 nM.

For `Cc1ncc(NC(=O)c2cnnc(C3CC3)c2)cc1-c1cnc(N2CC(C)(O)C2)c(C#N)c1` [Example 190, N-(5′-cyano-6′-(3-hydroxy-3-methylazetidin-1-yl)-2-methyl-[3,3′-bipyridin]-5-yl)-6-cyclopropyl-pyridazine-4-carboxamide], the IC50 against C-RAF was 29.1 nM; on b-Raf (V600E) it was 178 nM.

As to `COCCOc1ncc(-c2cc(NC(=O)c3ccnc(C(F)(F)F)c3)cnc2C)cc1C#N` [Example 93, N-(5′-cyano-6′-(2-methoxyethoxy)-2-methyl-[3,3′-bipyridin]-5-yl)-2-(trifluoromethyl) isonicotinamide], the results for the IC50 on C-RAF and at b-Raf (V600E) were 1.75 nM and 6.84 nM, respectively.

Consider `Cc1ncc(NC(=O)c2ccnc(C(C)(C)C#N)c2)cc1-c1cnc(-c2cccnc2)c(C#N)c1` [Example 108, N-(3′-cyano-2″- methyl-[3,2′:5′,3″- terpyridin]-5″-yl)-2-(2-cyanopropan-2-yl)isonicotinamide], for which the values for the IC50 on C-RAF and against b-Raf (V600E) were 2.66 nM and 13.7 nM, respectively.

For `Cc1cc(C(=O)Nc2ccc(C)c(-c3cnc(N(C)C)c(C#N)c3)c2)n(C)n1` [Example 254, N-(3-(5-cyano-6-(dimethylamino)pyridin-3-yl)-4-methylphenyl)-1,3-dimethyl-1H-pyrazole-5-carboxamide], the IC50 against C-RAF turned out to be 38.4 nM; at b-Raf (V600E) it was 278 nM.

As for `Cc1ncc(NC(=O)c2ccnc(C(C)(C)C#N)c2)cc1-c1cnc(-c2ccn(C)c(=O)c2)c(C#N)c1` [Example 103, N-(5′-cyano-1″,2-dimethyl-2″-oxo-1″,2″-dihydro-[3,3′:6′,4″- terpyridin]-5-yl)-2-(2-cyanopropan-2-yl)isonicotinamide], the IC50 was found to be 4.21 nM against C-RAF and 22.5 nM at b-Raf (V600E).
